Data on 10 compounds can be found in EP0415456A2, “Xanthine compounds” (priority 1989, dated 1991).

The structures appear in SMILES notation.

The target in data set [1] is T1, A₂ receptor (Rattus norvegicus, UniProt P30543).
T1 construct: A precipitate was prepared from rat corpus striatum; from tissue; host or cells: rat corpus striatum membrane preparation
Briefly: Adenosine A2 receptor binding (3H-NECA binding). Particulars: for inhibition at 10 µM / inhibition at 100 µM: read-out: A₂ Receptor Inhibition (%); for Ki: ³H-NECA with CPA, rat corpus striatum, read-out: A₂ Receptor Ki. The procedure: A precipitate was prepared from rat corpus striatum in a similar manner as in 1) above. The precipitate was suspended by adding a 50 mM Tris HCl buffer containing 10 mM magnesium chloride and 0.02 unit/mg (tissue) of adenosine deaminase (manufactured by Sigma Co.) to adjust the concentration of tissue to 5 mg (wet weight)/mℓ.
The mixture was incubated at 25°C within 120 minutes. The resulting mixture was treated in the same manner as in 1) above to determine its radioactivity.
The inhibition rate of the test compound against the binding of A₂ receptor (³H-NECA binding) was calculated from the following equation: [formula]

For data set [2], the target named is T2, Adenosine A₁ Receptor (Cavia porcellus, UniProt P47745).
T2 construct: from tissue; host or cells: guinea pig cerebrum membrane preparation
T2 sequence (P47745 1-326): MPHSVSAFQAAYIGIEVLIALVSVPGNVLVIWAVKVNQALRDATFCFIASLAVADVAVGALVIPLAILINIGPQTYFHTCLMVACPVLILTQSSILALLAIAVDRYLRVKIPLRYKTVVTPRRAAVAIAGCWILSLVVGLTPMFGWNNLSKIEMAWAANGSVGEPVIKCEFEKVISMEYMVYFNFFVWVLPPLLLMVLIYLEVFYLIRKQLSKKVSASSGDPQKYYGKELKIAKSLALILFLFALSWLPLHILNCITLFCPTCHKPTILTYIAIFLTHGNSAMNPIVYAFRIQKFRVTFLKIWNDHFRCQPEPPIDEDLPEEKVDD
Nature of the data set: Adenosine A1 receptor binding (3H-CHA binding). Also noted: species or system guinea pig. Particulars: for Ratio of Ki Values [A₂/A₁]: A₂ Ki (rat corpus striatum) / A₁ Ki (guinea pig cerebrum); for Ki: calculated from Cheng-Prusoff's equation, ³H-CHA; for Ki / inhibition at 100 µM / inhibition at 10 µM: guinea pig cerebrum; for inhibition at 100 µM: concentration of tested compound 10⁻⁴ M; for inhibition at 100 µM / inhibition at 10 µM: ³H-CHA 1.1 nM; for inhibition at 10 µM: concentration of tested compound 10⁻⁵ M. The procedure:
Cerebrum of a guinea pig was suspended into ice cooled 50 mM tris hydroxymethyl aminomethane hydrochloride (Tris HCl) buffer (pH = 7.7), by using Polytron homogenizer (manufactured by Kinematica Co.). The suspension was centrifuged (50,000 x g, 10 minutes), and the precipitate was resuspended by adding the same volume of 50 mM Tris HCl buffer. The suspension was centrifuged under the same conditions, and the precipitate obtained was suspended once again by adding 10 volumes of 50 mM Tris HCl. The tissue suspension was incubated at 37°C for 30 minutes in the presence of 0.02 units/mg tissue of adenosine deaminase (manufactured by Sigma Co.). The resulting tissue suspension was recentrifuged (50,000 x g, 10 minutes), and 50 mM Tris HCl was added to the precipitate to adjust the concentration of tissue to 10 mg (wet weight)/mℓ.
The mixture was incubated at 25°C for 90 minutes, and the resulting reaction was stopped by rapid vacuum filtration through a glass fiber filter (GF/C manufactured by Whatman Co.) followed by immediately washing three times with 5 mℓ each of ice cold 50 mM Tris HCl buffer. […] Its radioactivity was then determined by a scintillation counter (manufactured by Packard Instrument Co.).
The inhibition rate of the test compounds against the binding of A₁ […] (³H-CHA binding) was calculated from the following equation: [formula]
• 1. […] The inhibition constant (Ki value) shown in the table was calculated from Cheng-Prusoff's equation.

The test system of data set [3] is Wistar rats. Briefly: diuretic effect. It counts as in vivo. The note with it: 25 mg/kg oral, urine collected for 6 hours; for Increase in K⁺ excretion (%) / Increase in Na⁺excretion (%) / Increase in Urine (%): relative to control; for Na⁺/K⁺: relative value of control (control 1.00). The protocol: Wistar rats (male: 150 - 300 g) were starved for 18 hours prior to the administration of the test compounds. […] Urine was collected for 6 hours after the administration. Urine volume was measured and the electrolytes (Na+ and K+) in the urine were determined with a flame photome[…], Hitachi Ltd., Japan). All parameters are expressed as relative values of control.

The subject of data set [4] is male dd-strain mice. Nature of the data set: acute toxicity test. It counts as in vivo. The protocol:
[…]. The Minimum lethal dose (MLD) of the compounds was determined by observing whether or not the mice were alive after 7 days of the administration.

Data set [5] has as its system glycerol-induced renal failure model. Nature of the data set: renal-protecting effect (glycerol-induced renal failure model). Particulars: male Wistar rats; for suppression of increases of the serum creatinine and of urine-nitrogen: 0.01 - 10 mg/kg i.p., 24 hours after 50% glycerol s.c. (p < 0.05); for pathological examination of removed kidneys: state of kidneys: i.p., left kidney removed 24 hours after 50% glycerol s.c. It counts as in vivo. The protocol:
A renal failure is a state wherein the renal function is lowered and the homeostasis of a body fluid can be no more maintained. It is known that an acute renal failure characteristic of uriniferous tubule disorder is caused by subcutaneous or intramuscular injection of glycerol to rats [Can. J. Physiol.
Male Wistar rats were kept deprived or water for 18 hours, and served for the test. A test compound was intraperitoneally administered to the rats (dosage: 1 mℓ/kg) and the rats were anesthetized with ether and 50% glycerol was subcutaneously administered (dosage: 0.8mℓ/100g) to the rats, pinching the dorsal skin. Twenty four hours after the administration of glycerol, the rats were anesthetized with ether and 5 mℓ of blood were collected from the abdominal aorta. The collected blood was allowed to stand for 30 minutes or longer and then centrifuged at 3,000 rpm for 10 minutes, and the amounts of the serum creatinine and urine-nitrogen (UN) contained in the serum were determined by auto analyzer (Olympus AU510) or measured by a creatinine test Wako (Jaffé method) and UN Test Wako (diacetylmonooxime direct method). Both are manufactured by Wako Pure Chemicals Co.
On the other hand, the left kidneys of the blood-sampled rats were removed and placed in formalin-filled vial bottles, and used as samples for the pathological examination.

[6] abbreviates: 300 mg/kg orally administered, male dd-strain mice, observed 7 days after administration.

T1 sequence (P30543 whole entry): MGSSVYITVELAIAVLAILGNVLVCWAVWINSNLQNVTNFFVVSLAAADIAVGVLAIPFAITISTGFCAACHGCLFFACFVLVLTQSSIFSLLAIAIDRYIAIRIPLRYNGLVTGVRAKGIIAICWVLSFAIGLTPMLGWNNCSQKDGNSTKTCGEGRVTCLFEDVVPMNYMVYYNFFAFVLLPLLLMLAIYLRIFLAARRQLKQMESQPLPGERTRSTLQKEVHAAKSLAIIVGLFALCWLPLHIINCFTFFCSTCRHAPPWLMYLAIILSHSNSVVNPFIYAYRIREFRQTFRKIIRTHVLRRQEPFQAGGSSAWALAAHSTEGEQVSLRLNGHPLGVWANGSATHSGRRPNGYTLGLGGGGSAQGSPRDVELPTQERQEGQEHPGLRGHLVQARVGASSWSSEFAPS

In the case of `CCCn1c(=O)c2[nH]c([C@H]3C[C@@H]4C=C[C@@H]3C4)nc2n(CCC)c1=O` (relative stereo) [Compound 1, 8-[(1R*,4S*,5S*)-2-Bicyclo[2.2.1]hepten-5-yl]-1,3-dipropylxanthine], in data set [1], the inhibition (in general, the drop in the measured response relative to a control, in per cent) at 10 µM was 88%; the inhibition at 100 µM came out at 97%; the inhibitory constant (Ki) – broadly, the equilibrium dissociation constant of an inhibitor or competing ligand from its target – came to 0.51 µM. For the same compound, in data set [2], the “Ratio of Ki Values [A₂/A₁]” value was 92.7, the Ki is 0.0055 µM, testing at 100 µM gave an inhibition of 99% and the inhibition at 10 µM was 99%. For the same compound, in data set [3], the “Increase in K⁺ excretion (%)” value is reported as 36%, the “Increase in Na⁺excretion (%)” value came out at 73%, the “Increase in Urine (%)” value turned out to be 106% and the “Na⁺/K⁺” value stood at 1.27. Also, the “Minimum lethal dose (MLD)” value in data set [4] (mouse, in vivo, 10080 min) was “more than 300 mg/kg”.

As for `CCCn1c(=O)c2[nH]c([C@H]3C[C@H]4CC[C@@H]3C4)nc2n(CCC)c1=O` (relative stereo) [Compound 3, 8-[(1R*,2S*,5S*)-Bicyclo[2,2,1]heptan-2-yl]-1,3-dipropylxanthine], in data set [1], the inhibition at 10 µM was 83%, the inhibition at 100 µM is 90% and the Ki was 0.33 µM. Further, in data set [2], the “Ratio of Ki Values [A₂/A₁]” value is given as 75.0, the inhibitory constant (Ki) was 0.0044 µM, at 100 µM the inhibition was 100% and testing at 10 µM gave an inhibition of 100%. Further, in data set [3], the “Increase in K⁺ excretion (%)” value came to 29%, the “Increase in Na⁺excretion (%)” value turned out to be 137%, the “Increase in Urine (%)” value stood at 154% and the “Na⁺/K⁺” value amounted to 1.84. Further, the “Minimum lethal dose (MLD)” value in data set [4] (mouse, in vivo, 10080 min) is recorded as “more than 300 mg/kg”.

As for `CCCn1c(=O)c2[nH]c([C@@H]3CC[C@H]4CCC[C@H]43)nc2n(CCC)c1=O` (relative stereo) [Compound 5, 8-[(1R*,2R*,5R*)-Bicyclo[3.3.0]octan-2-yl]-1,3-dipropylxanthine], in data set [1], the inhibition at 10 µM was 91%, the inhibition at 100 µM was determined as 99% and the Ki is 0.33 µM. Further, in data set [2], the “Ratio of Ki Values [A₂/A₁]” value is on record as 86.8, the inhibition constant (Ki) is 0.0038 µM, the inhibition at 100 µM came out at 99% and the inhibition at 10 µM was determined as 99%. In addition, in data set [3], the “Increase in K⁺ excretion (%)” value amounted to 32%, the “Increase in Na⁺excretion (%)” value is listed as 109%, the “Increase in Urine (%)” value is listed as 88% and the “Na⁺/K⁺” value is recorded as 1.58. In addition, in data set [4] (mouse, in vivo, 10080 min), the “Minimum lethal dose (MLD)” value is reported as “more than 300 mg/kg”.

With `CCCn1c(=O)c2c(nc([C@H]3C[C@@H]4C=C[C@@H]3C4)n2C)n(CCC)c1=O` (relative stereo) [Compound 17, 8-[(1R*,4S*, 5S*)-2-Bicyclo[2.2.1]hepten-5-yl]-1,3-dipropyl-7-methylxanthine], in data set [3], the “Increase in K⁺ excretion (%)” value is 51%, the “Increase in Na⁺excretion (%)” value is 107%, the “Increase in Urine (%)” value came to 155% and the “Na⁺/K⁺” value turned out to be 1.37. Moreover, the “Minimum lethal dose (MLD)” value in data set [4] (mouse, in vivo, 10080 min) is “more than 300 mg/kg”. Moreover, in data set [5], the “suppression of increases of the serum creatinine and of urine-nitrogen” value (from here on “suppression of increases … of urine-nitrogen”) is reported as “significantly suppressed”; the “pathological examination of removed kidneys: state of kidneys” value (“pathological examination” for short) is “significantly improved”.

Turning to `CCCn1c(=O)[nH]c(=O)c2[nH]c([C@@H]3CC[C@H]4CCC[C@H]43)nc21` (relative stereo) [Compound 23, 8-[(1R*,2R*,5R*)-Bicyclo[3.3.0]octan-2-yl]-3-propylxanthine], the “Minimum lethal dose (MLD)” value in data set [4] (setting [6]) is listed as “more than 300 mg/kg”. Besides, in data set [5], the “suppression of increases … of urine-nitrogen” value is given as “significantly suppressed”; the “pathological examination” value is given as “significantly improved”.

Turning to `CCCn1c(=O)c2nc(C3CC4CCC3C4)[nH]c2n(CCC)c1=O` (stereo not drawn) [Compound 4, 8-[(1R*,2R*,5S*)-bicyclo[2.2.1)heptan-2-yl]-1,3-dipropylxanthine], in data set [3], the “Increase in K⁺ excretion (%)” value was 27%, the “Increase in Na⁺excretion (%)” value is 106%, the “Increase in Urine (%)” value came out at 113% and the “Na⁺/K⁺” value is 1.63. Further, the “Minimum lethal dose (MLD)” value in data set [4] (mouse, in vivo, 10080 min) is “more than 300 mg/kg”.

As for `CCCn1c(=O)c2[nH]c(Cc3csc(N)n3)nc2n(CCC)c1=O` [Compound 12, 8-(2-Aminothiazol-4-yl)methyl-1,3-dipropylxanthine], in data set [3], the “Increase in K⁺ excretion (%)” value was 32%, the “Increase in Na⁺excretion (%)” value is 103%, the “Increase in Urine (%)” value was determined as 108% and the “Na⁺/K⁺” value stood at 1.54. Moreover, the “Minimum lethal dose (MLD)” value in data set [4] (setting [6]) is recorded as 300 mg/kg.

As to `CCCn1c(=O)c2nc(C34CC5CC(CC3C5)C4)[nH]c2n(CCC)c1=S` [Compound 31, 8-(Noradamantan-3-yl)-1,3-dipropyl-2-thioxanthine], in data set [3], the “Increase in K⁺ excretion (%)” value is reported as 56%, the “Increase in Na⁺excretion (%)” value came out at 126%, the “Increase in Urine (%)” value was found to be 115% and the “Na⁺/K⁺” value is 1.44. The “Minimum lethal dose (MLD)” value in data set [4] (mouse, in vivo, 10080 min) is listed as “more than 300 mg/kg”. In data set [5], the “suppression of increases … of urine-nitrogen” value was “significantly suppressed”; the “pathological examination” value is reported as “significantly improved”.

As to `CCCn1c(=S)c2[nH]c(C34CC5CC(CC3C5)C4)nc2n(CCC)c1=O` [Compound 32, 8-(Noradamantan-3-yl)-1,3-dipropyl-6-thioxanthine], in data set [3], the “Increase in K⁺ excretion (%)” value stood at 41%, the “Increase in Na⁺excretion (%)” value stood at 114%, the “Increase in Urine (%)” value is 100% and the “Na⁺/K⁺” value was determined as 1.51. Further, the “Minimum lethal dose (MLD)” value in data set [4] (mouse, in vivo, 10080 min) is recorded as “more than 300 mg/kg”.

Take `CCCn1c(=S)c2[nH]c(C34CC5CC(CC3C5)C4)nc2n(CCC)c1=S` [Compound 33, 8-(Noradamantan-3-yl)-1,3-dipropyl-2,6-dithioxanthine]: in data set [3], the “Increase in K⁺ excretion (%)” value is recorded as 40%, the “Increase in Na⁺excretion (%)” value amounted to 105%, the “Increase in Urine (%)” value is recorded as 99% and the “Na⁺/K⁺” value worked out at 1.47. The “Minimum lethal dose (MLD)” value in data set [4] (mouse, in vivo, 10080 min) is recorded as “more than 300 mg/kg”.
